Where two headings read alike, the source gives them in different places.

The subject of this assay is HCV 1b genotype. In words: HCV replicon assay (HCV-neo replicon cells). Type of assay: cell-based. Conditions: Hepatitis C virus, HCV 1b genotype replicon. The procedure: An HCV Replion assay was utilized in the present disclosure, and was prepared, conducted and validated as described in commonly owned PCT/US2006/022197 and in O'Boyle et. al. Antimicrot Agents Chemother. 2005 April; 49(4):1346-53.
HCV-neo replicon cells were used to test the currently described compound series as well as cells resistant to compound A containing mutations in NS5A (described in application PCT/US2006/022197). The compounds tested were determined to have more than 10-fold less inhibitory activity on cells containing the mutation than wild-type cells indicating a related mechanism of action between the two compound series. Thus, the compounds of the present disclosure can be effective to inhibit the function of the HCV NS5A protein and are understood to be as effective in combinations as previously described in application PCT/US2006/022197 and commonly owned WO 04/014852. Further, the compounds of the present disclosure can be effective against the HCV 1b genotype. It should also be understood that the compounds of the present disclosure can inhibit multiple genotypes of HCV. […] In one embodiment compounds of the present disclosure are active against the 1a, 1b, 2a, 2b, 3a, 4a, and 5a genotypes. Activity ranges are as follows: A=501 nM-1 μM; B 1-500 nM; C=100-999 pM.

Take `COC(=O)N[C@H](C(=O)N1CCC[C@H]1c1ncc(-c2ccc(-c3ccc4ncnc(Nc5ccc(N6CCOCC6)cc5)c4c3)cc2)[nH]1)C(C)C` [Example 1]: the EC50 (activity range class) was in the range of 1 to 500 nM.

With `CC(=O)N1CCC[C@H]1c1ncc(-c2ccc(-c3ccc4ncnc(Nc5ccc(N6CCOCC6)cc5)c4c3)cc2)[nH]1` [Example 6], for the setting “activity range class”, the EC50 lay within 501 to 1000 nM.

On to `CC(C)(C)OC(=O)N1CCC[C@H]1c1ncc(-c2ccc(-c3ccc4ncnc(Nc5ccc(N6CCOCC6)cc5)c4c3)cc2)[nH]1` [Example 1 step e], for which the EC50 (activity range class) fell in the range of 1 to 500 nM.

In the case of `c1nc(Nc2ccc(N3CCOCC3)cc2)c2cc(-c3ccc(-c4cnc([C@@H]5CCCN5)[nH]4)cc3)ccc2n1` [Example 1 step f], the EC50 (read-out: EC50 Range/Value) amounted to 1510 nM.

Values taken from patent US8093243B2, “Hepatitis C virus inhibitors” (Bristol-Myers Squibb Company, priority 2008, dated 2012).
